Data: patent US20050222266A1, “2-indanylamino derivatives for the therapy of chronic pain” (priority 2002, published 2005)

Key:
[1] = system: rat MES model; conditions: cited from earlier work
[2] = system: mechanical hyperalgesia in streptozotocin (STZ)-induced diabetic neuropathy; experiment: streptozotocin-induced diabetic neuropathy, paw pressure test; type: in vivo, rat; conditions: 100 mg/kg p.o.
Experimental: The objective of this study was to assess the antinociceptive effects of CHF 3381 (25, 50 and 100 mg/kg p.o.) and gabapentin (100 mg/kg p.o) on mechanical hyperalgesia in streptozotocin (STZ)-induced diabetic neuropathy in rats. Diabetes was induced by intraperitoneal injection of STZ (75 mg/kg), and 23 days later its presence was confirmed by measuring of tail vein blood glucose levels and only rats with […] were included in the study.
After 25 days, distilled water, CHF3381 and gabapentin were administered 60 minutes before pain measurement. The nociceptive threshold was evaluated in all groups using a mechanical nociceptive stimulation (paw pressure test).
An increasing pressure (grams of contact pressure) was applied onto the both hind paws of the animal until a nociceptive reaction (vocalisation or paw withdrawal) was determined. The results, expressed as the percentage variation of the nociceptive threshold calculated respect the mean value of the vehicle-treated diabetic group, are reported in Table 2.

[3] = system: formalin-induced licking and flinching; experiment: mouse formalin test, 9 day treatment (tolerance); type: in vivo, mice
Experimental: The mice paw formalin test was performed as described by Wheeler-Aceto et al. (Psychopharmacology 104:35-44, 1991). Briefly, the day before the formalin injection, mice were placed individually into clear plastic cylinders for 30 minutes of adaptation. The day of testing 20 μl of 1% formalin was injected into the plantar surface of the left hind paw and the animals were again placed into the plastic cylinder for the behavioural observation. The amount of time, in seconds, the animals spent licking and flinching (L/F) the injected paw for the first 5 min (early phase), and then from 10 to 40 min(late phase) after formalin injection, was used as measurement of intensity of pain. CHF 3381 10-100 mg/kg i.p. and 25-200 mg/kg p.o. or the corresponding vehicles, were administered 15 and 30 min before formalin injection, respectively.
Moreover, the formalin test was used to examine whether tolerance develops with respect to the antihyperalgesic effect of CHF 3381 after chronic treatment in comparison with the standard opioid morphine. Briefly, mice were divided randomly into five groups (12 mice per group) and administered once daily for 8 days as follows: three groups with saline i.p., one group with CHF 3381 60 mg/kg i.p. and one group with morphine 20 mg/kg i.p. On ninth day these groups were treated in following way: one saline pre-treated group was treated with saline i.p. (g1); two saline pre-treated group were treated with CHF 3381 30 mg/kg i.p. (g2) and with morphine 6 mg/kg i.p. (g3), respectively; the group pre-treated with CHF 3381 60 mg/kg was treated with CHF 3381 30 mg/kg i.p. (g4) and the group pre-treated with morphine 20 mg/kg was treated with morphine 6 mg/kg i.p.(g5), a dose that was previously shown to be active in the formalin test. CHF 3381 and morphine were administered 15 and 30 min before formalin injection, respectively.

[4] = G3: 6 mg/kg i.p. on ninth day after 8 days saline
[5] = G5: 6 mg/kg i.p. on ninth day after 8 days morphine 20 mg/kg i.p.

Q: For `CC(NC1Cc2ccccc2C1)C(N)=O.Cl` (stereo not shown) [2-(2-indanylamino)-propanamide hydrochloride], which anti-convulsivant activity [1] is on record?
A: Its anti-convulsivant activity is “anti-convulsivant activity”.

Q: With `Cl.NC(=O)C(CO)NC1Cc2ccccc2C1` (stereo not shown) [3-hydroxy-2-(2-indanylamino)-propanamide hydrochloride] as the compound, how does the anti-convulsivant activity [1] read?
A: The anti-convulsivant activity was “anti-convulsivant activity”.

Q: With `NCC1(CC(=O)O)CCCCC1` [Gabapentin, gabapentin, reference compound] as the compound, how does the Nociceptive threshold ([2]; 60 minutes before measurement) read?
A: Its Nociceptive threshold is 229.2 ± 32.3 g.

Q: What about the “% variation of the nociceptive threshold” value ([2]; vs vehicle-treated diabetic group) of the same compound?
A: Its value is 68%.

Q: For `CN1CC[C@]23c4c5ccc(O)c4O[C@H]2[C@@H](O)C=C[C@H]3[C@H]1C5` [Morphine, morphine, reference compound], which Early phase [3, 4] is on record?
A: The Early phase was 52 ± 15 s.

Q: What about the Late phase [3, 4] of the same compound?
A: Its Late phase is 91 ± 21 s.

Q: What about the Early phase [3, 5] of the same compound?
A: The Early phase was 95 ± 9 s.

Q: What about the Late phase [3, 5] of the same compound?
A: The Late phase was 175 ± 22 s.

Q: What about the “antihyperalgesic action after chronic treatment (tolerance)” value ([3]; once daily for 8 days, test on ninth day) of the same compound?
A: The value was “failed to show such actions”.

Q: With `CN(CC(N)=O)C1Cc2ccccc2C1.Cl` [N-2(indanyl)-N-methyl glicinamide hydrochloride] as the compound, how does the anti-convulsivant activity [1] read?
A: Its anti-convulsivant activity is “anti-convulsivant activity”.
